{"source": "patent US9586896B2", "about": "“Nitroxyl donors with improved therapeutic index” (Cardioxyl Pharmaceuticals, Inc., priority 2013, dated 2017)", "assay": "Exploratory studies on the cause of the side effects of CXL-1020", "conditions": "in vivo", "experimental": "Exploratory studies were continued to determine the cause of the undesirable side effects of CXL-1020 at the higher, but still clinically desirable, doses. […] Studies were conducted with alternative nitroxyl donors that were structurally unrelated to CXL-1020 but had similar half-lives for nitroxyl donation (half-lives of about 2 minutes). For these donors, nitroxyl was at its highest intravascular concentration at the catheter tip and immediately downstream in the vein into which the catheter had been inserted. In all instances, local vascular side effects at the catheter tip were observed."}
{"smiles": "CS(=O)(=O)c1ccccc1S(=O)O", "note": "[byproduct of CXL-1020]", "values": [{"measurement": "side effect studies with the byproduct", "result": "negative"}]}
